Measurements as given in PubChem BioAssay (NCI).
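Cultured in 96-well plates, cells were exposed to test compound for 48 hours across five concentrations. GI50 marks 50% less growth. At the TGI there is no net growth.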

Experiments:
Assay in all cases: NCI-60 cell line screen, 48 h
OVCAR-5 ovarian = test system: OVCAR-5 ovarian
COLO 205 colon = test system: COLO 205 colon
SNB-75 CNS = test system: SNB-75 CNS
MALME-3M melanoma = test system: MALME-3M melanoma
SK-MEL-5 melanoma = test system: SK-MEL-5 melanoma
HOP-92 NSCLC = test system: HOP-92 NSCLC
HT29 colon = test system: HT29 colon
LOX IMVI melanoma = test system: LOX IMVI melanoma
SK-MEL-28 melanoma = test system: SK-MEL-28 melanoma
SF-268 CNS = test system: SF-268 CNS
HCC-2998 colon = test system: HCC-2998 colon
NCI-H226 lung = test system: NCI-H226 lung
A498 renal = test system: A498 renal
EKVX NSCLC = test system: EKVX NSCLC
SN12C renal = test system: SN12C renal
SW-620 colon = test system: SW-620 colon
UACC-257 melanoma = test system: UACC-257 melanoma
MOLT-4 leukemia = test system: MOLT-4 leukemia
SK-OV-3 ovarian = test system: SK-OV-3 ovarian
SF-295 CNS = test system: SF-295 CNS
HCT-15 colon = test system: HCT-15 colon
NCI-H460 lung = test system: NCI-H460 lung
NCI-H23 lung = test system: NCI-H23 lung
NCI-H522 lung = test system: NCI-H522 lung
NCI/ADR-RES ovarian = test system: NCI/ADR-RES ovarian
HOP-62 NSCLC = test system: HOP-62 NSCLC
OVCAR-3 ovarian = test system: OVCAR-3 ovarian
TK-10 renal = test system: TK-10 renal
A549 NSCLC = test system: A549 NSCLC
SF-539 CNS = test system: SF-539 CNS
HCT-116 colon = test system: HCT-116 colon
HL-60(TB) leukemia = test system: HL-60(TB) leukemia
HS 578T breast = test system: HS 578T breast
PC-3 prostate = test system: PC-3 prostate
T-47D breast = test system: T-47D breast
OVCAR-4 ovarian = test system: OVCAR-4 ovarian
MDA-MB-435 = test system: MDA-MB-435
RXF 393 renal = test system: RXF 393 renal
DU-145 prostate = test system: DU-145 prostate
RPMI-8226 leukemia = test system: RPMI-8226 leukemia
SR leukemia = test system: SR leukemia
MDA-MB-231 breast = test system: MDA-MB-231 breast
IGROV1 ovarian = test system: IGROV1 ovarian
SK-MEL-2 melanoma = test system: SK-MEL-2 melanoma
ACHN renal = test system: ACHN renal
BT-549 breast = test system: BT-549 breast
UACC-62 melanoma = test system: UACC-62 melanoma
U251 CNS = test system: U251 CNS
KM12 colon = test system: KM12 colon
CAKI-1 renal = test system: CAKI-1 renal
K-562 leukemia = test system: K-562 leukemia
M14 melanoma = test system: M14 melanoma
OVCAR-8 ovarian = test system: OVCAR-8 ovarian
SNB-19 CNS = test system: SNB-19 CNS
MCF7 breast = test system: MCF7 breast
786-0 renal = test system: 786-0 renal

With `O=C(Nc1ccc(Cl)cc1)Nc1ccc(Oc2nncc3ccccc23)cc1` the GI50 (OVCAR-5 ovarian) was 1890 nM, the TGI (OVCAR-5 ovarian) was 4470 nM and the GI50 (COLO 205 colon) was 1180 nM. For the same molecule, the TGI (COLO 205 colon) was 2920 nM, the GI50 (SNB-75 CNS) was 451 nM and the TGI (SNB-75 CNS) was 1950 nM. For the same molecule, the GI50 (MALME-3M melanoma) was 448 nM, the TGI (MALME-3M melanoma) was 2310 nM and the GI50 (SK-MEL-5 melanoma) was 1200 nM. The TGI (SK-MEL-5 melanoma) was 2810 nM, the GI50 (HOP-92 NSCLC) was 1640 nM and the TGI (HOP-92 NSCLC) was 4380 nM. For the same molecule, the GI50 (HT29 colon) was 465 nM, the TGI (HT29 colon) was 2390 nM and the GI50 (LOX IMVI melanoma) was 166 nM. The TGI (LOX IMVI melanoma) was 455 nM, the GI50 (SK-MEL-28 melanoma) was 422 nM and the TGI (SK-MEL-28 melanoma) was 1650 nM. It also gave a GI50 (SF-268 CNS) of 1350 nM, a TGI (SF-268 CNS) of 7210 nM and a GI50 (HCC-2998 colon) of 1840 nM. It also gave a TGI (HCC-2998 colon) of 3480 nM, a GI50 (NCI-H226 lung) of 623 nM and a TGI (NCI-H226 lung) of 5420 nM. For the same molecule, the GI50 (A498 renal) was 1500 nM, the TGI (A498 renal) was 3060 nM and the GI50 (EKVX NSCLC) was 1610 nM. It also gave a TGI (EKVX NSCLC) of 4500 nM, a GI50 (SN12C renal) of 1030 nM and a TGI (SN12C renal) of 3580 nM. It also gave a GI50 (SW-620 colon) of 348 nM, a TGI (SW-620 colon) of 1600 nM and a GI50 (UACC-257 melanoma) of 1500 nM. The TGI (UACC-257 melanoma) was 4040 nM, the GI50 (MOLT-4 leukemia) was 376 nM and the TGI (MOLT-4 leukemia) was greater than 100000 nM. The GI50 (SK-OV-3 ovarian) was 1740 nM, the TGI (SK-OV-3 ovarian) was 5480 nM and the GI50 (SF-295 CNS) was 2540 nM. The TGI (SF-295 CNS) was 6270 nM, the GI50 (HCT-15 colon) was 961 nM and the TGI (HCT-15 colon) was 3080 nM. It also gave a GI50 (NCI-H460 lung) of 2790 nM, a TGI (NCI-H460 lung) of 8320 nM and a GI50 (NCI-H23 lung) of 751 nM. The TGI (NCI-H23 lung) was 2870 nM, the GI50 (NCI-H522 lung) was 193 nM and the TGI (NCI-H522 lung) was 419 nM. The GI50 (NCI/ADR-RES ovarian) was 2630 nM, the TGI (NCI/ADR-RES ovarian) was greater than 100000 nM and the GI50 (HOP-62 NSCLC) was 1090 nM. It also gave a TGI (HOP-62 NSCLC) of 4320 nM, a GI50 (OVCAR-3 ovarian) of 354 nM and a TGI (OVCAR-3 ovarian) of 1150 nM. For the same molecule, the GI50 (TK-10 renal) was 2120 nM, the TGI (TK-10 renal) was 4280 nM and the GI50 (A549 NSCLC) was 2810 nM. The TGI (A549 NSCLC) was 11500 nM, the GI50 (SF-539 CNS) was 280 nM and the TGI (SF-539 CNS) was 1130 nM. The GI50 (HCT-116 colon) was 326 nM, the TGI (HCT-116 colon) was 1200 nM and the GI50 (HL-60(TB) leukemia) was 1080 nM. For the same molecule, the TGI (HL-60(TB) leukemia) was 13400 nM, the GI50 (HS 578T breast) was 696 nM and the TGI (HS 578T breast) was 47000 nM. The GI50 (PC-3 prostate) was 1640 nM, the TGI (PC-3 prostate) was 6080 nM and the GI50 (T-47D breast) was 245 nM. It also gave a TGI (T-47D breast) of 768 nM, a GI50 (OVCAR-4 ovarian) of 753 nM and a TGI (OVCAR-4 ovarian) of 3490 nM. For the same molecule, the GI50 (MDA-MB-435) was 290 nM, the TGI (MDA-MB-435) was 1070 nM and the GI50 (RXF 393 renal) was 312 nM. It also gave a TGI (RXF 393 renal) of 1050 nM, a GI50 (DU-145 prostate) of 736 nM and a TGI (DU-145 prostate) of 2080 nM. The GI50 (RPMI-8226 leukemia) was 488 nM, the TGI (RPMI-8226 leukemia) was 4580 nM and the GI50 (SR leukemia) was 401 nM. It also gave a TGI (SR leukemia) greater than 100000 nM, a GI50 (MDA-MB-231 breast) of 399 nM and a TGI (MDA-MB-231 breast) of 3680 nM. The GI50 (IGROV1 ovarian) was 1160 nM, the TGI (IGROV1 ovarian) was 5000 nM and the GI50 (SK-MEL-2 melanoma) was 1570 nM. The TGI (SK-MEL-2 melanoma) was 3650 nM, the GI50 (ACHN renal) was 1050 nM and the TGI (ACHN renal) was 2330 nM. It also gave a GI50 (BT-549 breast) of 2080 nM, a TGI (BT-549 breast) of 7430 nM and a GI50 (UACC-62 melanoma) of 1080 nM. It also gave a TGI (UACC-62 melanoma) of 3460 nM, a GI50 (U251 CNS) of 1010 nM and a TGI (U251 CNS) of 2380 nM. It also gave a GI50 (KM12 colon) of 888 nM, a TGI (KM12 colon) of 2650 nM and a GI50 (CAKI-1 renal) of 2720 nM. The TGI (CAKI-1 renal) was 8700 nM, the GI50 (K-562 leukemia) was 376 nM and the TGI (K-562 leukemia) was 10900 nM. It also gave a GI50 (M14 melanoma) of 1120 nM, a TGI (M14 melanoma) of 3160 nM and a GI50 (OVCAR-8 ovarian) of 1100 nM. It also gave a TGI (OVCAR-8 ovarian) of 13600 nM, a GI50 (SNB-19 CNS) of 1740 nM and a TGI (SNB-19 CNS) of 4790 nM.
For `O=c1cc(-c2ccccc2)[nH]c2ccc(N3CCCCC3)cc12`, the TGI (MCF7 breast) was greater than 67900 nM, the TGI (OVCAR-5 ovarian) was greater than 100000 nM and the TGI (COLO 205 colon) was greater than 100000 nM. For the same molecule, the TGI (MALME-3M melanoma) was greater than 100000 nM, the TGI (SK-MEL-5 melanoma) was 4200 nM and the TGI (HOP-92 NSCLC) was 53600 nM. For the same molecule, the TGI (LOX IMVI melanoma) was greater than 100000 nM, the TGI (SK-MEL-28 melanoma) was greater than 100000 nM and the TGI (SF-268 CNS) was greater than 53200 nM. It also gave a TGI (HCC-2998 colon) greater than 22500 nM, a TGI (NCI-H226 lung) of 70.6 nM and a TGI (EKVX NSCLC) greater than 100000 nM. For the same molecule, the TGI (SN12C renal) was greater than 100000 nM, the TGI (SW-620 colon) was greater than 100000 nM and the TGI (UACC-257 melanoma) was greater than 100000 nM. The TGI (MOLT-4 leukemia) was greater than 100000 nM, the TGI (SK-OV-3 ovarian) was greater than 59700 nM and the TGI (SF-295 CNS) was 47.4 nM. It also gave a TGI (HCT-15 colon) greater than 100000 nM, a TGI (NCI-H460 lung) greater than 100000 nM and a TGI (NCI-H23 lung) of 6860 nM. It also gave a TGI (NCI-H522 lung) greater than 100000 nM, a TGI (HOP-62 NSCLC) of 47400 nM and a TGI (OVCAR-3 ovarian) of 2890 nM. The TGI (TK-10 renal) was greater than 100000 nM, the TGI (SF-539 CNS) was 549 nM and the TGI (HL-60(TB) leukemia) was less than 28 nM. The TGI (786-0 renal) was 43100 nM, the TGI (HS 578T breast) was greater than 100000 nM and the TGI (PC-3 prostate) was greater than 100000 nM. The TGI (T-47D breast) was greater than 100000 nM, the TGI (OVCAR-4 ovarian) was greater than 100000 nM and the TGI (DU-145 prostate) was greater than 30300 nM. For the same molecule, the TGI (RPMI-8226 leukemia) was greater than 100000 nM, the TGI (SR leukemia) was greater than 100000 nM and the TGI (MDA-MB-231 breast) was greater than 100000 nM. The TGI (IGROV1 ovarian) was greater than 100000 nM, the TGI (SK-MEL-2 melanoma) was greater than 100000 nM and the TGI (ACHN renal) was greater than 100000 nM. For the same molecule, the TGI (BT-549 breast) was greater than 100000 nM, the TGI (UACC-62 melanoma) was greater than 100000 nM and the TGI (U251 CNS) was greater than 45900 nM. The TGI (KM12 colon) was 90.9 nM, the TGI (CAKI-1 renal) was greater than 100000 nM and the TGI (K-562 leukemia) was greater than 100000 nM. For the same molecule, the TGI (M14 melanoma) was greater than 100000 nM, the TGI (OVCAR-8 ovarian) was greater than 44900 nM and the TGI (SNB-19 CNS) was greater than 100000 nM.
